According to ChEMBL document CHEMBL3271998, “Quantitative structure-activity relationships among steroids. Investigations of the use of steric parameters” (1976):

test system: Oryctolagus cuniculus; assay: Progestational activity in immature rabbit assessed as proliferation of uterus administered intramuscularly by haematoxylin and eosin staining-based assay; type: functional

| Structure (SMILES) | log(activity) |
| --- | --- |
| C=C1C[C@H]2[C@@H]3C=C(NC(C)=O)C4=CC(=O)CC[C@]4(C)[C@H]3CC[C@]2(C)[C@@]1(OC(C)=O)C(C)=O | -1 |
| C=C1C[C@H]2[C@@H]3C=C(F)C4=CC(=O)CC[C@]4(C)[C@H]3CC[C@]2(C)[C@@]1(OC(C)=O)C(C)=O | 1.74 |
| C=C1C[C@H]2[C@@H]3C=C(Cl)C4=CC(=O)CC[C@]4(C)[C@H]3CC[C@]2(C)[C@@]1(OC(C)=O)C(C)=O | 1.89 |
| C=C1C[C@H]2[C@@H]3C=C(C#N)C4=CC(=O)CC[C@]4(C)[C@H]3CC[C@]2(C)[C@@]1(OC(C)=O)C(C)=O | 0.78 |
| C=C1C[C@H]2[C@@H]3C=C(OCC)C4=CC(=O)CC[C@]4(C)[C@H]3CC[C@]2(C)[C@@]1(OC(C)=O)C(C)=O | 0 |
| C=C1C[C@H]2[C@@H]3C=C(Br)C4=CC(=O)CC[C@]4(C)[C@H]3CC[C@]2(C)[C@@]1(OC(C)=O)C(C)=O | 1.62 |
| C=C1C[C@H]2[C@@H]3C=C(OC(C)=O)C4=CC(=O)CC[C@]4(C)[C@H]3CC[C@]2(C)[C@@]1(OC(C)=O)C(C)=O | -0.7 |
| C=C1C[C@H]2[C@@H]3C=CC4=CC(=O)CC[C@]4(C)[C@H]3CC[C@]2(C)[C@@]1(OC(C)=O)C(C)=O | 0 |
| C=C1C[C@H]2[C@@H]3C=C(C)C4=CC(=O)CC[C@]4(C)[C@H]3CC[C@]2(C)[C@@]1(OC(C)=O)C(C)=O [MELENGESTROL ACETATE] | 1.96 |
| C=C1C[C@H]2[C@@H]3C=C(C=O)C4=CC(=O)CC[C@]4(C)[C@H]3CC[C@]2(C)[C@@]1(OC(C)=O)C(C)=O | 0 |
| C=C1C[C@H]2[C@@H]3C=C(N=[N+]=[N-])C4=CC(=O)CC[C@]4(C)[C@H]3CC[C@]2(C)[C@@]1(OC(C)=O)C(C)=O | 1.3 |
| C=C1C[C@H]2[C@@H]3C=C(OC)C4=CC(=O)CC[C@]4(C)[C@H]3CC[C@]2(C)[C@@]1(OC(C)=O)C(C)=O | 1.15 |
| C=C1C[C@H]2[C@@H]3C=C(C(F)(F)F)C4=CC(=O)CC[C@]4(C)[C@H]3CC[C@]2(C)[C@@]1(OC(C)=O)C(C)=O | 1.04 |
| C=C1C[C@H]2[C@@H]3C=C(SC#N)C4=CC(=O)CC[C@]4(C)[C@H]3CC[C@]2(C)[C@@]1(OC(C)=O)C(C)=O | 1.08 |
